The values that follow are results of earlier work, collected in publication PMC9301952 (ACS Omega, 2022).

The data set concerns mouse. The conditions noted are these: behavioral assay used to predict psychedelic drug activity.

`CNCCc1c[nH]c2cccc(O)c12` [norpsilocin, 4-hydroxy-N-methyltryptamine]: the “activity in the mouse head twitch assay” value is on record as “neither compound is active”.

In the case of `CNCCc1c[nH]c2cccc(OP(=O)(O)O)c12` [baeocystin, 4-phosphoryloxy-N-methyltryptamine], the “activity in the mouse head twitch assay” value is “neither compound is active”.
